Assay results reported in patent US10189777B2, “Benzenesulfonamido and related compounds for use as agonists of RORγ and the treatment of disease” (Lycera Corporation, priority 2014, dated 2019).

How the values were obtained:
Gal4-RORγ-LBD = target: T1, Gal4-RORγ-LBD (Homo sapiens, UniProt P51449); assay: Gal4-RORγ Luciferase Reporter Assay in HEK-293T Cells; format: cell-based; conditions: for EC50: HEK-293 cells, with 2 μM ursolic acid, incubated overnight, luciferase readout; for Gal4-RORγ Assay Max Response: upper plateau of 4-parameter fit, luciferase signal in the absence of ursolic acid or test compound defined at 100
T1 construct: expressed in transfected cells
T1 sequence (P51449 269-508 limits assumed): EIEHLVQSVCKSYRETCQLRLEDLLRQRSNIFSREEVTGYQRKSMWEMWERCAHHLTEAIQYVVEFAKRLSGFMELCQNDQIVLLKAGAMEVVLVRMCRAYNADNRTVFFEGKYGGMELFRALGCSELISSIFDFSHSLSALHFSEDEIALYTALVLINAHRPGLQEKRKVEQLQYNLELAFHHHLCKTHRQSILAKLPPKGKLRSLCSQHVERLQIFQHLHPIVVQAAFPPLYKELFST
Protocol: (§1) Exemplary compounds from the above Examples were tested for ability to increase RORγ activity using (i) a RORγ-Ligand Binding Domain (LBD) TR-FRET Assay, and (ii) a Gal4-RORγ Luciferase Reporter Assay in HEK-293T Cells. Assay procedures and results are described below.
Part II—Procedures for Gal4-RORγ Luciferase Reporter Assay in HEK-293T Cells
Transfection of HEK-293 Cells
In the following protocol, HEK-293 cells were transfected with a construct comprising the Gal4 DNA binding domain fused to the ligand binding domain of RORγ (Gal4-RORγ-LBD) in a pcDNA3.1neo plasmid, and also with a reporter construct comprising pGL4.31 Gal4-luciferase (Promega). Control cells were prepared similarly using empty pcDNA3.1neo and pGL4.31 vectors.
Trans-IT reagent (Mirus, 60 μL) at room temperature was added drop wise to OptiMEM (Invitrogen, 1.5 ml). This reagent mixture was mixed by inversion then incubated for 5 to 30 minutes at room temperature. It then was added to a solution of both expression vectors (5 μg each), mixed, and incubated at room temperature for about 20 minutes. HEK-293 cells were harvested from incubation flasks by removing the media, treating with TrypLE Express (Invitrogen), and incubating until the cells detached from the bottom of the flask (approximately 2-5 minutes). 10 Million cells were collected by centrifugation and re-suspended in 10 mL of Dulbecco's Modified Eagle Medium, High Glucose (DMEM, Invitrogen) containing 10% Fetal Bovine Serum and 100 IU each of penicillin and streptomycin. The re-suspended cells and the transfection mixture were added to a T75 flask, mixed and incubated overnight at 37° C. and 5% CO2.
The cells were harvested as described above, counted, and centrifuged to obtain the desired number of cells, then re-suspended in complete growth media at 0.75×10^6 cells/mL. The RORγ antagonist, ursolic acid, was added to the cells at a final concentration of 2 μM. Cells were plated at 20 μL of cell suspension/well (10,000-15,000 cells/well) in white tissue culture treated 384 well plates. Test compounds were dissolved at 10 mM in DMSO then diluted into complete growth medium to 5× the final intended test concentration. These drug stock solutions, 5 μL/well were added to the tissue culture plate. The final DMSO concentration was 0.2%. The plates were briefly centrifuged then incubated overnight at 37° C. and 5% CO2. To conduct the assay, the tissue culture plates were allowed to equilibrate to room temperature and One-Glo luciferase reagent (Promega, 25 μL/well) was added. The plates were briefly centrifuged then incubated at room temperature for 10 minutes. The luciferase intensity was read on an Envision plate reader (Perkin Elmer). RORγ activity was determined relative to controls and plotted as a function of test compound concentration using PRISM (GraphPad) to determine a 50% effective concentration (EC50). The luciferase signal in the absence of ursolic acid or test compound is defined at 100. The Max Response is the upper plateau in the signal as determined by line-fit using a 4-parameter logistic model in PRISM (GraphPad).

[1] = target: T2, HIS-tagged RORγ-LBD protein (Homo sapiens, UniProt P51449); assay: RORγ-Ligand Binding Domain (LBD) TR-FRET Assay; format: biochemical; conditions: for TR-FRET Assay Max Response: upper plateau of 4-parameter fit, signal in the absence of ursolic acid or test compound set as 100; for EC50: with 2 μM RORγ antagonist ursolic acid, biotinylated SRC1 LXXLL peptide, ratio 665 nm/615 nm
T2 construct: made in house; host or cells: SF9 cells, baculovirus expression system; the lysate was used
T2 sequence (P51449 269-508 limits assumed): T1 sequence (P51449 269-508 limits assumed)
Protocol: as §1
Part I—Procedures for RORγ-Ligand Binding Domain TR-FRET Assay
HIS-tagged RORγ-LBD protein was expressed in SF9 cells using a baculovirus expression system. The lysate was diluted in assay buffer (50 mM Tris pH 7.0, 50 mM KCl, 1 mM EDTA, 0.1 mM DTT, 0.01% BSA) to obtain RORγ-LBD final concentration of −3 nM in a 384-well assay plate (need to titrate for each batch of protein).
A stock of biotinylated-LXXLL peptide from coactivator SRC1 (Biotin-[…]) was prepared in assay buffer and added to each well (200 nM final concentration). A solution of Europium tagged anti-HIS antibody (0.6 nM final concentration) and APC-conjugated streptavidin (30 nM final concentration) were also added to each well. RORγ antagonist ursolic acid was also included at a final concentration of 2 μM. Compounds were diluted in DMSO and further diluted in assay buffer with a final DMSO concentration at 1%.
The final assay mixture was incubated overnight at 4° C. or 2 hours at room temperature, and the fluorescence signal was measured on an Envision plate reader: (Excitation filter=340 nm; APC emission=665 nm; Europium emission=615 nm; dichroic mirror=D400/D630; delay time=100 μs, integration time=200 μs). 50% Effective concentration (EC50) values for test compounds were calculated from the quotient of the fluorescence signal at 665 nm divided by the fluorescence signal at 615 nm. The quotient of the fluorescence signals in the absence of ursolic acid or test compound is set as 100. Max Response is defined as the upper plateau in the signal as determined by line-fit using a 4-parameter logistic model in PRISM (GraphPad).

SMILES	EC50 (Gal4-RORγ-LBD) [nM]	EC50 [1] [nM]	Gal4-RORγ Assay Max Response (Gal4-RORγ-LBD)	TR-FRET Assay Max Response [1]
CCN(c1cccc(OC2CCc3cccc(F)c32)c1)S(=O)(=O)c1cccc(C(F)(F)F)c1 (stereo not shown)	> 10000	< 500	**** (The symbol “****” indicates a value greater than 200)	*** (The symbol “***” indicates a value in the range of greater than 150 to 200)
CCN(c1cccc(OC2CCc3cccc(Cl)c32)c1)S(=O)(=O)c1cccc(C(F)(F)F)c1 (stereo not shown)	5000 to 10000	< 500	*** (The symbol “***” indicates a value in the range of greater than 150 to 200)	*** (The symbol “***” indicates a value in the range of greater than 150 to 200)
CCOc1nn(CC)cc1S(=O)(=O)N(CC)c1cccc(OC2CCc3ccccc32)c1 (stereo not shown)	> 10000	500 to 5000	–	**** (The symbol “****” indicates a value greater than 200)
CCOc1nn(CC)cc1S(=O)(=O)N(CC)c1cccc(OCc2c(F)cccc2Cl)c1	500 to 5000	500 to 5000	** (The symbol “**” indicates a value in the range of greater than 90 to 150)	**** (The symbol “****” indicates a value greater than 200)
CCN(c1cccc(NCc2ccccc2Cl)c1)S(=O)(=O)c1cccc(C(F)(F)F)c1	500 to 5000	< 500	** (The symbol “**” indicates a value in the range of greater than 90 to 150)	**** (The symbol “****” indicates a value greater than 200)
CCC(c1ccc(OCc2c(F)cccc2Cl)cc1)S(=O)(=O)c1cccc(C(F)(F)F)c1 (stereo not shown)	< 500	< 500	** (The symbol “**” indicates a value in the range of greater than 90 to 150)	*** (The symbol “***” indicates a value in the range of greater than 150 to 200)
CCC(c1cccc(OCc2ccccc2)c1)S(=O)(=O)c1cccc(C(F)(F)F)c1 (stereo not shown)	500 to 5000	5000 to 10000	* (The symbol “*” indicates a value in the range of 70 to 90)	** (The symbol “**” indicates a value in the range of greater than 90 to 150)
CCC(c1ccc(OCc2c(F)cccc2Cl)cc1)S(=O)(=O)c1ccc(Cl)cc1 (stereo not shown)	500 to 5000	< 500	* (The symbol “*” indicates a value in the range of 70 to 90)	*** (The symbol “***” indicates a value in the range of greater than 150 to 200)

Second part, led by results:

EC50 (Gal4-RORγ-LBD) [nM]	EC50 [1] [nM]	SMILES	Gal4-RORγ Assay Max Response (Gal4-RORγ-LBD)	TR-FRET Assay Max Response [1]
500 to 5000	< 500	CCN(c1cccc(OCc2c(Cl)cccc2Cl)c1)S(=O)(=O)c1cccc(C(F)(F)F)c1	** (The symbol “**” indicates a value in the range of greater than 90 to 150)	*** (The symbol “***” indicates a value in the range of greater than 150 to 200)
500 to 5000	500 to 5000	CCN(c1cccc(OCCc2c(Cl)cccc2Cl)c1)S(=O)(=O)c1cccc(C(F)(F)F)c1	** (The symbol “**” indicates a value in the range of greater than 90 to 150)	**** (The symbol “****” indicates a value greater than 200)
> 10000	500 to 5000	CCN(c1cccc(OCCc2c(F)cccc2Cl)c1)S(=O)(=O)c1cccc(C(F)(F)F)c1	** (The symbol “**” indicates a value in the range of greater than 90 to 150)	*** (The symbol “***” indicates a value in the range of greater than 150 to 200)
500 to 5000	< 500	CCN(c1cccc(OCc2c(F)cccc2C(F)(F)F)c1)S(=O)(=O)c1cccc(C(F)(F)F)c1	** (The symbol “**” indicates a value in the range of greater than 90 to 150)	**** (The symbol “****” indicates a value greater than 200)
> 10000	< 500	CCN(c1cccc(OCc2c(F)cccc2OC)c1)S(=O)(=O)c1cccc(C(F)(F)F)c1	–	**** (The symbol “****” indicates a value greater than 200)
5000 to 10000	< 500	CCN(c1cccc(OCc2cc(Cl)ccc2Cl)c1)S(=O)(=O)c1cccc(C(F)(F)F)c1	*** (The symbol “***” indicates a value in the range of greater than 150 to 200)	**** (The symbol “****” indicates a value greater than 200)
500 to 5000	500 to 5000	CCN(c1cccc(OCc2ccccc2Cl)c1)S(=O)(=O)c1cccc(C(F)(F)F)c1	** (The symbol “**” indicates a value in the range of greater than 90 to 150)	**** (The symbol “****” indicates a value greater than 200)
